Patent publication US20050233467A1, “Visible wavelength fluorescent calcium indicators that are (i) leakage resistant and (ii) operate near membranes” (priority 2004, published 2005)

System: myocytes of mouse small mesenteric arteries
Assay: Localization of dye in walls of mouse small mesenteric arteries (imaging)
Assay type: cell-based
Details: mouse small mesenteric artery wall, activated cells
Text: The plane is tangential to the artery, very close to the coverslip. The spindle-shaped cells run horizontally, the artery lumen runs vertically. […] The FLUO-MOMO images are quite bright because the cells have been activated and [Ca^2+] cyt has risen. […] (Photo courtesy of Dr. Blaustein of The University of Maryland Medical School.)

Q: How did the “localization of dye in the cell” value turn out when CCN(CC)c1ccc(/C=C/C=C/C=C/c2cc[n+](CCC[N+](CC)(CC)CC)cc2)cc1.[Br-].[Br-] [FM4-64] was run?
A: localizes to the plasma membrane
